Several values for one entry are separate records, joined by “and”; a condition that tells them apart may be missing. Equal entries are not always repeated. Structures can show the parent of a compound that is named as a salt. Where two headings read alike, the source gives them in different places.
Experiments:
[1] = test system: Adult Bovine Aortic Endothelial (ABAE) cell line; assay: Antiproliferative activity in ABAE cell line, PROTOCOL 2; assay type: cell-based; details: PROTOCOL 2, 48 hours
Experimental: (§1) The antiproliferative activity of the compounds of Formula I in an Adult Bovine Aortic Endothelial (ABAE) cell line and in Human Tumor cell lines is evaluated in three similar assays that measure growth inhibition. The assays are identified as follows:
(§2) PROTOCOL 1,2,and 3 are described in greater detail hereinbelow. In general, according to PROTOCOLS 1 and 2, the target ABAE and/or Human Tumor cells are exposed to the compounds of Formula I for 48 hours. PROTOCOL 3 exposes ABAE cells to the compounds for 4 days. A detailed description of the protocols is as follows:
Antiproliferative Activity in Human Tumor and Adult Bovine Aortic Endothelial Cell Lines (ABAE)
(§3) The antiproliferative activity of the compounds of Formula I is evaluated in a panel comprised of human tumor cell lines and an adult bovine aortic cell line (ABAE) as listed in PROTOCOL 1. This assay is a modification of PROTOCOL 1. The modifications include:
(§4) 1) each concentration for each compound is tested in a single well;
(§5) 2) compounds are tested at 20, 4, 0.8, 0.16 microgram/ml and additionally in some experiments at 100 and 0.32 microgram/ml;
(§6) 3) samples are pipetted into a 96-well plate for each of the cell lines by a Beckman Biomek 1000 SL robot;
(§7) 4) after fixing with TCA each well is washed with 0.35 ml distilled water twice, not five times;
(§8) 5) after staining with sulforhodamine B each well is washed 3 times, not five times;
(§9) 6) the growth inhibition (I) as % of control, is calculated using the RS-1 data package (BBN Software), for every concentration of drug, as follows: [formula] wherein: T is optical density measurement for treated cells after 48 hours;
(§10) C is optical density measurement for untreated cells after 48 hours;
(§11) 7) IC50 of growth inhibition is determined graphically from dose response curves, as is known in the art.
Table 1 presents the results depicting the antiproliferative activity of the compounds of Formula I against an Adult Bovine Aortic Endothelial cell line (ABAE), as evaluated by PROTOCOL 1 and 2. The results are presented in terms of IC50 and are as follows.

A2780S = assay: Antiproliferative activity in human tumor cell lines: A2780S (ovarian); assay type: cell-based; details: PROTOCOL 1 and PROTOCOL 2, 48 hours
Experimental: (§12) The assays are identified as follows:
as §2
(§13) The antiproliferative activity of the compounds of Formula I of the present invention is evaluated in a panel comprised of human tumor cell lines and an adult bovine aortic endothelial cell line (ABAE). The human tumor cell lines are from
(§14) Cultures are renewed after 20 passages with cells from a fresh stock of batch-frozen early passage cells. Cell lines are routinely checked for mycoplasma contamination (Genprobe). In a laminar flow hood, cells (1-5×10^4) are plated into 96-well microtiter plates in a volume of 0.1 ml/well with a bulk microtiter dispenser (Denley). […] Compounds are added using a Tomtec dispenser which simultaneously dispenses from one 96-well plate, containing the drug dilutions, to the plates containing the cells. After two days of continuous drug exposure, 50% cold trichloroacetic acid (TCA) is added to 10% final concentration to fix the cells, and after 60 minutes at 4° C., the TCA is aspirated and the plates are washed 5 times with deionized water using a microtiter plate washer. […] A 0.4% solution of the dye, sulforhodamine B, in […] is added to the plates, and the plates are washed 5 times with 1% glacial acetic acid using the automatic plate washed. The bound stain is solubilized with 0.1 ml of 10 mM Tris base. The optical densities are read from an automatic spectrophotometric plate reader (Dynatech) directly to a main frame computer (VAX 8600).
(§15) Positive controls, that include standard chemotherapeutic drugs (i.e., Adriamycin, Cisplatin, etc.), are included in every experiment.
(§16) Background optical density measurements (complete media-cells, and complete media+drug-cells) are automatically subtracted from the appropriate control and test wells. Mean values and standard errors are determined from duplicate wells. A measure is also made of the optical density at time when the drugs are added. The number of cells after treatment (P), as % of control, is calculated for every concentration of drug, as follows: [formula] wherein: T is optical density measurement for treated cells after 48 hours;
as §10
(§17) Co is optical density measurement for cells at the time of drug addition.
(§18) IC50 of growth inhibition is calculated from the sets of P values using the RS-1 data package (BBN Software).
as §3, §4, §5, §6, §7, §8, §9, §11

A2780/DDP = assay: Antiproliferative activity in human tumor cell lines: A2780/DDP (ovarian); assay type: cell-based; details: PROTOCOL 1 and PROTOCOL 2, 48 hours
Experimental: as §12, §2, §13, §14, §15, §16, §10, §17, §18, §3, §4, §5, §6, §7, §8, §9, §11

MIP = assay: Antiproliferative activity in human tumor cell lines: MIP (colon); assay type: cell-based; details: PROTOCOL 1 and PROTOCOL 2, 48 hours
Experimental: as §1, §2, §13
(§19) All cell lines are maintained in log phase in RPMI 1640 media, supplemented with 5% fetal calf serum, penicillin/streptomycin and 2 mM L-glutamine. Cultures are renewed after 20 passages with cells from a fresh stock of batch-frozen early passage cells. Cell lines are routinely checked for mycoplasma contamination (Genprobe). In a laminar flow hood, cells (1-5×10^4) are plated into 96-well microtiter plates in a volume of 0.1 ml/well with a bulk microtiter dispenser (Denley). […] At this concentration, dimethylsulfoxide has no effect on cell growth. Compounds are added using a Tomtec dispenser which simultaneously dispenses from one 96-well plate, containing the drug dilutions, to the plates containing the cells. After two days of continuous drug exposure, 50% cold trichloroacetic acid (TCA) is added to 10% final concentration to fix the cells, and after 60 minutes at 4° C., the TCA is aspirated and the plates are washed 5 times with deionized water using a microtiter plate washer. The number of cells on the plate are quantitated using a protein dye-binding assay (Monks et al., 1991). A 0.4% solution of the dye, sulforhodamine B, in glacial acetic acid is added to the plates, and the plates are washed 5 times with 1% glacial acetic acid using the automatic plate washed. The bound stain is solubilized with 0.1 ml of 10 mM Tris base. The optical densities are read from an automatic spectrophotometric plate reader (Dynatech) directly to a main frame computer (VAX 8600).
as §15, §16, §10, §17, §18, §3, §4, §5, §6, §7
(§20) 5) after staining with sulforhodamine B each well is washed 3 times, not five times; […]

CACO2 = assay: Antiproliferative activity in human tumor cell lines: CACO2 (colon); assay type: cell-based; details: CACO2 colon tumor, PROTOCOL 1 and PROTOCOL 2, 48 hours
Experimental: as §1, §2, §13, §19, §15, §16, §10, §17, §18, §3, §4, §5, §6, §7, §20

HTB 161 = assay: Antiproliferative activity in human tumor cell lines: HTB 161 (ovarian); assay type: cell-based; details: HTB 161 ovarian tumor, PROTOCOL 1 and PROTOCOL 2, 48 hours
Experimental: as §12, §2, §13, §14, §15, §16, §10, §17, §18, §3, §4, §5, §6, §7, §8, §9, §11

SW620 = assay: Antiproliferative activity in human tumor cell lines: SW620 (colon); assay type: cell-based; details: SW-620, SW620 colon tumor, PROTOCOL 1 and PROTOCOL 2, 48 hours, read-out: IC50
Experimental: as §1, §2, §13, §19, §15, §16, §10, §17, §18, §3, §4, §5, §6, §7, §20

Human Tumor cell lines = assay: Antiproliferative activity in the panel of human tumor cell lines; assay type: cell-based; details: Homo sapiens; average over the 6 tumor cell lines
Experimental: as §1, §2, §13, §19, §15, §16, §10, §17, §18, §3, §4, §5, §6, §7, §20

[2] = test system: Adult Bovine Aortic Endothelial (ABAE) cell line; assay: Antiproliferative activity in ABAE cell line, PROTOCOL 3 (4 day assay); assay type: cell-based; details: 4 day assay (PROTOCOL 3)
Experimental: as §1, §2
Antiproliferative Activity in Adult Bovine Aortic Endothelial (ABAE) Cell Line
ABAE cells are grown in DMEMmedia (Mediatech, Washington, D.C.) supplemented with 10% calf serum (Hyclone). ABAE cells are plated in 24-well dishes at 8,000 cells/well, followed by the addition of increasing concentrations of 7-(hydrogen or di(C1 -C4)alkylamino)-8-halogen-9-(substituted)-6-demethyl-6-deoxytetracycline. After four days, the cells are detached and counted. […] The growth inhibition (I) as % of control is calculated as follows: [formula] wherein: Nc is the number of cells in untreated wells;
Nt is the number of cells in treated wells;
No is the number of plated cells.
IC50 of growth inhibition is determined from the sets of I values plotted by Kaleidograph software (Abelbeck Software).
In addition FIG. 1, presents the dose response curve for the compound of Example 10 for the above ABAE cell line obtained by using PROTOCOL 3.

angiogenesis = details: Brem et al, cited from earlier work; for inhibition of angiogenesis: WO92/12717
tumor growth = details: in conjunction with cancer chemotherapy or radiation therapy; Teicher et al; cited from earlier work
[3] = Homo sapiens, Caco-2, read-out: IC50

Compound	IC50 ([1]; Bos taurus, read-out: IC50)	IC50 (A2780S)	IC50 (A2780/DDP)	IC50 (MIP)	IC50 (CACO2; [3])	IC50 (HTB 161)	IC50 (SW620)	IC50 (Human Tumor cell lines)	inhibition of angiogenesis (angiogenesis)	also measured
CC(C)NCC(=O)Nc1c(Cl)cc2c(c1O)C(=O)C1=C(O)[C@]3(O)C(=O)C(C(N)=O)=C(O)[C@@H](N(C)C)C3CC1C2 (stereo partly drawn) [Example 15, [4S-(4α,12aα)]-8-Chloro-4-(dimethylamino)-1,4,4a,5,5a,6,11,12a,-octahydro-3,10,12,12a-tetrahydroxy-1,11-dioxo-9-[[[(1-methylethyl)amino]acetyl]amino]-2-naphthacenecarboxamide dihydrochloride]	< 1 µg/mL	–	–	–	–	–	–	–	–	–
CCC(C(=O)Nc1c(Cl)cc2c(c1O)C(=O)C1=C(O)[C@]3(O)C(=O)C(C(N)=O)=C(O)[C@@H](N(C)C)C3CC1C2)N1CCCC1 (stereo partly shown) [Example 19, dihydrochloride]	4 µg/mL	1 µg/mL	1 µg/mL	3 µg/mL	4 µg/mL	2 µg/mL	3 µg/mL	2.3 µg/mL	–	–
[4S-(4α,12aα)]-8 -Chloro-4-(dimethylamino)-9-[[(2-(dimethylamino) -1-oxopropyl]amino]-1,4,4a,5,5a,6,11,12a-octahydro-3,10,12,12a-tetrahydroxy-1,11-dioxo-9-[[[(1-methylethyl)amino]acetyl]amino]-2-naphthacenecarboxamide dihydrochloride [Example 16]	–	–	–	–	–	–	–	–	–	IC50 [1]: 3 µg/mL; IC50 (CACO2; dihydrochloride): 4.0 µg/mL and 8.0 µg/mL
CN(C)c1ccc(O)c2c1C[C@H]1C[C@H]3[C@H](N(C)C)C(O)=C(C(N)=O)C(=O)[C@@]3(O)C(O)=C1C2=O [Minocycline]	–	–	–	–	–	–	–	–	useful as inhibitors of angiogenesis	activity upon incubation with cells [2]: loosing its activity upon incubation with cells; inhibition of angiogenesis compared with combination therapy of heparin and cortisone (angiogenesis; Cancer Research 51, 672-675): inhibits angiogenesis to an extent comparable to that of the combination therapy of heparin and cortisone; number of metastases (tumor growth): the number of metastases is reduced; tumor growth (tumor growth): tumor growth is decreased
CN(C)[C@@H]1C(O)=C(C(=O)NCNCCCC[C@H](N)C(=O)O)C(=O)[C@@]2(O)C(O)=C3C(=O)c4c(O)cccc4[C@@](C)(O)[C@H]3C[C@@H]12 [Lymecycline]	–	–	–	–	–	–	–	–	useful as inhibitors of angiogenesis	–
CC(C(=O)Nc1c(Cl)cc2c(c1O)C(=O)C1=C(O)[C@]3(O)C(=O)C(C(N)=O)=C(O)[C@@H](N(C)C)C3CC1C2)N1CCCCC1 (stereo partly drawn) [Example 14, 7S-(7α, 10aα)]-N-[9-(Aminocarbonyl)-3-chloro-7-(dimethylamino)-5,5a,6,6a,7,10,10a,12-octahydro-1,8,10a,11-tetrahydroxy-10,12-dioxo-2-naphthacenyl]-α-methyl-1-piperidineacetamide dihydrochloride]	< 0.8 µg/mL	< 0.16 µg/mL	< 0.16 µg/mL	< 0.16 µg/mL	0.7 µg/mL	< 0.16 µg/mL	< 0.16 µg/mL	–	–	–
CCC(C(=O)Nc1c(Cl)cc2c(c1O)C(=O)C1=C(O)[C@]3(O)C(=O)C(C(N)=O)=C(O)[C@@H](N(C)C)C3CC1C2)N(C)C (stereo partly shown) [Example 18, dihydrochloride]	16 µg/mL	–	3 µg/mL	4 µg/mL	11 µg/mL	3 µg/mL	3 µg/mL	4.8 µg/mL	–	–
CC(C(=O)Nc1c(Cl)cc2c(c1O)C(=O)C1=C(O)[C@]3(O)C(=O)C(C(N)=O)=C(O)[C@@H](N(C)C)C3CC1C2)N1CCCC1 (stereo partly drawn) [Example 13, 7S-(7α,10aα)]-N-[9-(Aminocarbonyl)-3-chloro-7-(dimethylamino)-5,5a,6,6a,7,10,10a,12-octahydro-1,8,10a,11-tetrahydroxy-10,12-dioxo-2-naphthacenyl]-α-methyl-1-pyrrolidineacetamide dihydrochloride]	3 µg/mL	1 µg/mL	1 µg/mL	–	3 µg/mL	1 µg/mL	1 µg/mL	1.3 µg/mL	–	–
CN(C)[C@@H]1C(O)=C(C(N)=O)C(=O)[C@@]2(O)C(O)=C3C(=O)c4c(O)ccc(Cl)c4[C@@H](O)[C@H]3C[C@@H]12 [Demeclocycline]	–	–	–	–	–	–	–	–	useful as inhibitors of angiogenesis	–
CN(C)[C@@H]1C(O)=C(C(N)=O)C(=O)[C@@]2(O)C(O)=C3C(=O)c4c(O)ccc(Cl)c4[C@@](C)(O)[C@H]3C[C@@H]12 [Chlortetracycline]	–	–	–	–	–	–	–	–	useful as inhibitors of angiogenesis	–

— patent US5567693A, “Method for inhibiting angiogenesis, proliferation of endothelial or tumor cells and tumor growth” (American Cyanamid Company, priority 1994, dated 1996)
